What all share (assay type): in vivo
Holding throughout (settings): evaluated after 13 days

Assay [1] concerns Zea mays (ZEAMX). In words: Pre-emergence Test, Zea mays (ZEAMX).
Assay [2] concerns Ipomoea hederacea (IPOHE). In words: Pre-emergence Test, Ipomoea hederacea (IPOHE).
The test system of assay [3] is Amaranthus retoflexus (AMARE). In words: Post-emergence Test, Amaranthus retoflexus (AMARE). Further details: key to percentage damage caused to the plant, AMARE (five-point scale): 5=81-100%, 4=61-80%, 3=41-60%, 2=21-40%, 1=0-20% damage. The procedure, abridged:
(§1)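 Scores are percentage plant damage on a 1–5 scale (1=0-20%, 2=21-40%, 3=41-60%, 4=61-80%, 5=81-100%), read 13 days after treatment. Pots received a spray at 1000 g/ha unless otherwise stated, formulated in acetone/water (50:50) containing 0.5% Tween 20.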

The test system of assay [4] is Setaria faberi (SETFA). In words: Pre-emergence Test, Setaria faberi (SETFA).
Assay [5] relates to Zea mays (ZEAMX). In words: Post-emergence Test, Zea mays (ZEAMX). Also noted: key to percentage damage caused to the plant, ZEAMX (five-point scale): 5=81-100%, 4=61-80%, 3=41-60%, 2=21-40%, 1=0-20% damage. The procedure, abridged:
as §1

Assay [6] concerns Setaria faberi (SETFA). Kind of assay: Post-emergence Test, Setaria faberi (SETFA). Further details: key to percentage damage caused to the plant, SETFA (five-point scale): 5=81-100%, 4=61-80%, 3=41-60%, 2=21-40%, 1=0-20% damage. The procedure, abridged:
as §1

The test system of assay [7] is Ipomoea hederacea (IPOHE). In words: Post-emergence Test, Ipomoea hederacea (IPOHE). Further details: key to percentage damage caused to the plant, IPOHE (five-point scale): 5=81-100%, 4=61-80%, 3=41-60%, 2=21-40%, 1=0-20% damage. The method in brief: as §1
Assay [8] relates to Amaranthus palmeri (AMAPA). Kind of assay: Post-emergence Test, Amaranthus palmeri (AMAPA). Further details: key: 5=81-100%, 4=61-80%, 3=41-60%, 2=21-40%, 1=0-20% damage. The method in brief: as §1
Assay [9] has as its system Amaranthus palmeri (AMAPA). Kind of assay: Pre-emergence Test, Amaranthus palmeri (AMAPA).
For assay [10], the system named is Amaranthus retoflexus (AMARE). In words: Pre-emergence Test, Amaranthus retoflexus (AMARE).
Assay [11] has as its system Echinochloa crus-galli (ECHCG). Kind of assay: Post-emergence Test, Echinochloa crus-galli (ECHCG). Also noted: key to percentage damage caused to the plant, ECHCG (five-point scale): 5=81-100%, 4=61-80%, 3=41-60%, 2=21-40%, 1=0-20% damage. The method in brief: as §1
The subject of assay [12] is Echinochloa crus-galli (ECHCG). Kind of assay: Pre-emergence Test, Echinochloa crus-galli (ECHCG).

The text below walks through data of patent US20250098679A1, “HERBICIDAL PYRIDONE DERIVATIVES” (SYNGENTA CROP PROTECTION AG, priority 2021, published 2025).

`CCn1c(Cn2ccc(CC#N)n2)cc(=O)c(C(=O)O)c1-c1ccc(Cl)c(Cl)c1` [Compound 175, 6-[[3-(cyanomethyl)pyrazol-1-yl]methyl]-2-(3,4-dichlorophenyl)-1-ethyl-4-oxo-pyridine-3-carboxylic acid]: the “Pre-emergence Test ZEAMX, percentage damage caused to the plant (five-point scale)” value in the assay with Zea mays (ZEAMX) [1] (1000 g/ha) was found to be 0. The “Pre-emergence Test IPOHE, percentage damage caused to the plant (five-point scale)” value in assay [2] (1000 g/ha) is 1 (1=0-20%). Further, the “percentage damage caused to the plant, AMARE (five-point scale)” value in assay [3] (250 g/Ha) and in assay [3] (1000 g/ha) was 0 in each case. For the same compound, in the assay on Setaria faberi (SETFA) [4] (1000 g/ha), the “Pre-emergence Test SETFA, percentage damage caused to the plant (five-point scale)” value is 3 (3=41-60%). Further, the “percentage damage caused to the plant, ZEAMX (five-point scale)” value in the assay on Zea mays (ZEAMX) [5] (250 g/Ha) is recorded as 0; in the assay on Zea mays (ZEAMX) [5] (1000 g/ha) it was 1 (1=0-20%). Further, the entries for the “percentage damage caused to the plant, SETFA (five-point scale)” value with Setaria faberi (SETFA) [6] (250 g/Ha) and in the assay on Setaria faberi (SETFA) [6] (1000 g/ha) were 0 and 3 (3=41-60%), respectively. For the same compound, the “percentage damage caused to the plant, IPOHE (five-point scale)” value in assay [7] (250 g/Ha) was 1 (1=0-20%); in [7] (1000 g/ha), 2 (2=21-40%). Further, the “percentage damage caused to the plant, AMAPA (five-point scale)” value in assay [8] (250 g/Ha) and in [8] (1000 g/ha) was 0 throughout. Further, the “Pre-emergence Test AMAPA, percentage damage caused to the plant (five-point scale)” value in assay [9] (1000 g/ha) is reported as 0. Besides, the “Pre-emergence Test AMARE, percentage damage caused to the plant (five-point scale)” value in assay [10] (1000 g/ha) is 0. In addition, the “percentage damage caused to the plant, ECHCG (five-point scale)” value in [11] (250 g/Ha) is on record as 1 (1=0-20%); in [11] (1000 g/ha), 2 (2=21-40%). In addition, the “Pre-emergence Test ECHCG, percentage damage caused to the plant (five-point scale)” value in assay [12] (1000 g/ha) is 1 (1=0-20%).

In the case of `CCn1c(Cn2nccc2C#N)cc(=O)c(C(=O)O)c1-c1ccc(Cl)c(Cl)c1` [Compound 176, 6-[(5-cyanopyrazol-1-yl)methyl]-2-(3,4-dichlorophenyl)-1-ethyl-4-oxo-pyridine-3-carboxylic acid], the “Pre-emergence Test ZEAMX, percentage damage caused to the plant (five-point scale)” value with Zea mays (ZEAMX) [1] (250 g/Ha (*)) and in the assay with Zea mays (ZEAMX) [1] (1000 g/ha) was 0 each time. Also, the “Pre-emergence Test IPOHE, percentage damage caused to the plant (five-point scale)” value was 0 in assay [2] (250 g/Ha (*)) and 1 (1=0-20%) in [2] (1000 g/ha). Moreover, the “percentage damage caused to the plant, AMARE (five-point scale)” value in [3] (250 g/Ha) is given as 0; in [3] (1000 g/ha) it was 3 (3=41-60%). The “Pre-emergence Test SETFA, percentage damage caused to the plant (five-point scale)” value with Setaria faberi (SETFA) [4] (250 g/Ha (*)) and in the assay on Setaria faberi (SETFA) [4] (1000 g/ha) was 4 (4=61-80%) in each case. Also, the “percentage damage caused to the plant, ZEAMX (five-point scale)” value with Zea mays (ZEAMX) [5] (250 g/Ha) was 0; in the assay with Zea mays (ZEAMX) [5] (1000 g/ha), 1 (1=0-20%). Further, the “percentage damage caused to the plant, SETFA (five-point scale)” value is given as 2 (2=21-40%) in the assay on Setaria faberi (SETFA) [6] (250 g/Ha) and 4 (4=61-80%) in the assay on Setaria faberi (SETFA) [6] (1000 g/ha). The results for the “percentage damage caused to the plant, IPOHE (five-point scale)” value in [7] (250 g/Ha) and in assay [7] (1000 g/ha) were 2 (2=21-40%) and 3 (3=41-60%), respectively. The “percentage damage caused to the plant, AMAPA (five-point scale)” value in assay [8] (250 g/Ha) was found to be 0. Also, the “Pre-emergence Test AMAPA, percentage damage caused to the plant (five-point scale)” value in [9] (250 g/Ha (*)) is given as 1 (1=0-20%); in assay [9] (1000 g/ha) it was 2 (2=21-40%). Further, the “Pre-emergence Test AMARE, percentage damage caused to the plant (five-point scale)” value in assay [10] (250 g/Ha (*)) and in assay [10] (1000 g/ha) was 0 each time. The “percentage damage caused to the plant, ECHCG (five-point scale)” value is reported as 2 (2=21-40%) in assay [11] (250 g/Ha) and 4 (4=61-80%) in assay [11] (1000 g/ha). Also, the “Pre-emergence Test ECHCG, percentage damage caused to the plant (five-point scale)” value in assay [12] (250 g/Ha (*)) is recorded as 2 (2=21-40%); in assay [12] (1000 g/ha), 4 (4=61-80%).

`CCn1c(Cn2ccc(C(F)F)n2)cc(=O)c(C(=O)O)c1-c1ccc(Cl)c(Cl)c1` [Compound 186]: the results for the “Pre-emergence Test ZEAMX, percentage damage caused to the plant (five-point scale)” value in the assay with Zea mays (ZEAMX) [1] (250 g/Ha (*)) and in the assay with Zea mays (ZEAMX) [1] (1000 g/ha) were 0 and 3 (3=41-60%), respectively. Moreover, the “Pre-emergence Test IPOHE, percentage damage caused to the plant (five-point scale)” value in assay [2] (250 g/Ha (*)) is recorded as 2 (2=21-40%); in [2] (1000 g/ha), 4 (4=61-80%). The “percentage damage caused to the plant, AMARE (five-point scale)” value in [3] (250 g/Ha) is listed as 1 (1=0-20%); in [3] (1000 g/ha), 3 (3=41-60%). Further, the “Pre-emergence Test SETFA, percentage damage caused to the plant (five-point scale)” value in the assay with Setaria faberi (SETFA) [4] (250 g/Ha (*)) and in the assay on Setaria faberi (SETFA) [4] (1000 g/ha) was 5 (5=81-100%) throughout. Moreover, the “percentage damage caused to the plant, ZEAMX (five-point scale)” value with Zea mays (ZEAMX) [5] (250 g/Ha) and in the assay with Zea mays (ZEAMX) [5] (1000 g/ha) was 1 (1=0-20%) in each case. Besides, the “percentage damage caused to the plant, SETFA (five-point scale)” value with Setaria faberi (SETFA) [6] (250 g/Ha) and with Setaria faberi (SETFA) [6] (1000 g/ha) was 4 (4=61-80%) throughout. Moreover, the “percentage damage caused to the plant, IPOHE (five-point scale)” value in assay [7] (250 g/Ha) and in assay [7] (1000 g/ha) was 4 (4=61-80%) in each case. The “percentage damage caused to the plant, AMAPA (five-point scale)” value in assay [8] (250 g/Ha) and in assay [8] (1000 g/ha) was 2 (2=21-40%) in each case. For the same compound, the “Pre-emergence Test AMAPA, percentage damage caused to the plant (five-point scale)” value is reported as 0 in [9] (250 g/Ha (*)) and 1 (1=0-20%) in assay [9] (1000 g/ha). Besides, the “Pre-emergence Test AMARE, percentage damage caused to the plant (five-point scale)” value in assay [10] (250 g/Ha (*)) is 0; in [10] (1000 g/ha) it was 2 (2=21-40%). For the same compound, the “percentage damage caused to the plant, ECHCG (five-point scale)” value in assay [11] (250 g/Ha) and in [11] (1000 g/ha) was 4 (4=61-80%) in each case. Also, the “Pre-emergence Test ECHCG, percentage damage caused to the plant (five-point scale)” value in assay [12] (250 g/Ha (*)) is reported as 4 (4=61-80%); in assay [12] (1000 g/ha), 5 (5=81-100%).
